We go through 4 molecules from US6821994B2, “Carboxylic acid derivative and a pharmaceutical composition containing the derivative as active ingredient” (Ono Pharmaceutical Co., Ltd., priority 1998, dated 2004).

One assay concerns SD rats. Description: Hypocholesterolemic and hypolipidemic effects in SD rats given hypercholesterolemic food. The assay is classed as in vivo. The settings on record: male SD rats, orally in 0.5% CMC, then hypercholesterolemic food, blood at 9:00 of the next day; for IG level: control 163 ± 18; for IC level: control 167 ± 13; for NEFA level: control 615 ± 80. The text has this: Male, six-weeks old SD rats (five rats per group) were left to take milled diet and water ad libitum and were acclimatized for 1 week.
At 9:00 on the first day of the experiment (Day 0), blood sampling was done from tail vein. The rats were divided into some groups according to body weight, triglyceride (TG), non-esterified fatty acid (NEFA) and total cholesterol (TC) levels to minimize differences of the parameters among the groups. At 17:00 of the day, the compound of the present invention dissolved in 0.5% aqueous solution of carboxymethylcellulose (CMC) was orally administered, and thereafter, with hypercholesterolemic food (5.5% peanut oil, 1.5% cholesterol and 0.5% cholic acid were mixed with milled CRF-1 diet, Charles River Inc.) was given to the rats.
At 9:00 of the next day, blood sampling was done from tail vein. The lipid levels in blood (TG, NEFA and TC levels) after administration of the compounds of the present invention were measured. There was no significant difference of the food intake between the control group (provided only 0.5% CMC) and the group treated with the compounds of the present invention.

Another assay concerns the target T1, human PPARγ (Homo sapiens, UniProt P37231).
T1 construct: expressed in transfected cells; host or cells: CV-1 cells
T1 sequence (P37231 204-505): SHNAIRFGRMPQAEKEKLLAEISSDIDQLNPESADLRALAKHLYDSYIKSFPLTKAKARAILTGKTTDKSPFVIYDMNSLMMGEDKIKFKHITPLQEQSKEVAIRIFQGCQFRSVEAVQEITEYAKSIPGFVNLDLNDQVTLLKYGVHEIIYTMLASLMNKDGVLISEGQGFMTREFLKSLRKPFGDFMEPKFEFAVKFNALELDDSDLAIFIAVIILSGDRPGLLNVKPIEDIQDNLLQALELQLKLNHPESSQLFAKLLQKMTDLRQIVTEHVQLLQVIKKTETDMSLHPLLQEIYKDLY
Description: Luciferase assay using human PPARγ (Gal4-PPARγ ligand binding domain chimeric receptor, CV-1 host cells). It counts as cell-based. The settings on record: PPARγ agonistic activity; compound 10 μM; luciferase activity of troglitazone (10 μM) defined as 1.0; CV-1 cells.

The target of a further assay is T2, human PPARα (Homo sapiens, UniProt Q07869).
T2 construct: expressed in transfected cells; host or cells: CV-1 cells
T2 sequence (Q07869 167-468): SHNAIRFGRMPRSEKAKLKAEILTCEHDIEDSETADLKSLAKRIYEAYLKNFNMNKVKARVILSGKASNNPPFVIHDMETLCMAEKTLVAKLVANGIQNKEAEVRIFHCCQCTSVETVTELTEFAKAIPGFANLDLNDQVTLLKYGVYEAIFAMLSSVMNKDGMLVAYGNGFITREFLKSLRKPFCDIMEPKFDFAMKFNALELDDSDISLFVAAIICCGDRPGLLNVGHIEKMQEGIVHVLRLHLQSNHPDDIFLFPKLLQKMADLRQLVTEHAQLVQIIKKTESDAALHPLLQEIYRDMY
Description: Luciferase assay using human PPARα (Gal4-PPARα ligand binding domain chimeric receptor, CV-1 host cells). The assay is classed as cell-based. The settings on record: PPARα agonistic activity; compound 10 μM; luciferase activity of carbacyclin (10 μM) defined as 1.0; CV-1 cells.

A further assay deals with KKAy/Ta mice. Description: Hypoglycemic and hypolipidemic effects in KKAy/Ta mice. It counts as in vivo. The conditions noted are these: male KKAy/Ta mice, food mixture containing 0.03% (w/w) compound (43-47 mg/kg/day conversion value), 4 days; for TG level: control 439 ± 234; for blood sugar level: control 520 ± 147. The text has this: Male, 7-weeks old KKAy/Ta mice weighed from 35 to 40 g (five mice per group) were pre-breaded for approximately one week and acclimatized for three days on milled diet. On the first day of the experiment (Day 0), mice were divided into some groups according to weight, plasma glucose and triglyceride (TG) levels to minimize the differences among groups. […] At 13:00 of the third day, blood samples were collected to measure glucose and TG levels. Additionally, there was no significant difference in the food intake between control group (milled diet only) and compounds-treated group (milled diet containing 0.03% compounds).

Take `Cc1ccc(-c2nc(Cc3ccc(/C=C/CSCC(=O)O)o3)c(C)o2)cc1` [Example 3(1), 2-((2E)-3-(5-(5-methyl-2-(4-methylphenyl)oxazol-4-ylmethyl)furan-2-yl)-2-propenylthio)acetic acid]: in the assay with SD rats, the IG level turned out to be 92 ± 26 mg/dL, the IC level amounted to 107 ± 4 mg/dL and the NEFA level is 394 ± 49 µEq/l. Also, the “Relative Activity to a positive control compound (troglitazone = 1)” value (shortened to “Relative Activity … (troglitazone = 1)”) at human PPARγ was found to be 1.1. In addition, on human PPARα, the “Relative Activity to a positive control compound (carbacyclin = 1)” value (“Relative Activity … (carbacyclin = 1)” below) worked out at 1.5. Also, in the assay on KKAy/Ta mice, the TG level stood at 44 ± 11 mg/dL and the blood sugar level came to 253 ± 27 mg/dL.

As to `Cc1oc(-c2ccc3c(c2)OCO3)nc1Cc1ccc(/C=C/CSCC(=O)O)o1` [Example 3(2), 2-((2E) -3-(5-(5-methyl-2-(1,3-dioxaindan-5-yl)oxazol-4-ylmethyl)furan-2-yl)-2-propenylthio)acetic acid], in the assay with SD rats, the IG level was 62 ± 7 mg/dL, the IC level was 86 ± 6 mg/dL and the NEFA level came out at 145 ± 18 µEq/l. In addition, on human PPARγ, the “Relative Activity … (troglitazone = 1)” value turned out to be 2.3. On human PPARα, the “Relative Activity … (carbacyclin = 1)” value came to 3.1. Also, in the assay with KKAy/Ta mice, the TG level was 45 ± 12 mg/dL and the blood sugar level was found to be 243 ± 37 mg/dL.

As to `CCc1ccc(-c2nc(Cc3ccc(/C=C/CSCC(=O)O)o3)c(C)o2)cc1` [Example 3(3), 2-((2E)-3-(5-(5-methyl-2-(4-ethylphenyl)oxazol-4-ylmethyl)furan-2-yl)-2-propenylthio)acetic acid], in the assay on SD rats, the IG level was 79 ± 12 mg/dL, the IC level came to 91 ± 4 mg/dL and the NEFA level came to 213 ± 31 µEq/l. The “Relative Activity … (troglitazone = 1)” value at human PPARγ is reported as 2.2. The “Relative Activity … (carbacyclin = 1)” value at human PPARα came out at 1.8. For the same molecule, in the assay with KKAy/Ta mice, the TG level came out at 31 ± 15 mg/dL and the blood sugar level was determined as 234 ± 31 mg/dL.

In the assay on SD rats, `Cc1oc(-c2ccccc2)nc1Cc1ccc(/C=C/CSCC(=O)O)o1` [Example 3, 2-((2E)-3-(5-(5-methyl-2-phenyloxazol-4-ylmethyl)furan-2-yl)-2-propenylthio)acetic acid] displayed an IG level of 73 ± 7 mg/dL, an IC level of 87 ± 5 mg/dL and an NEFA level of 207 ± 25 µEq/l. Further, on human PPARγ, the “Relative Activity … (troglitazone = 1)” value was found to be 2.3. Besides, the “Relative Activity … (carbacyclin = 1)” value on human PPARα is given as 2.6. In the assay with KKAy/Ta mice, the TG level worked out at 43 ± 12 mg/dL and the blood sugar level is 260 ± 37 mg/dL.
